In patent publication US11426472B2, “Fibroblast activation protein (FAP) targeted imaging and therapy in fibrosis” (Purdue Research Foundation, priority 2018, dated 2022):

Experiments:
mouse FAP = biological target: T1, mouse FAP (Mus musculus, UniProt P97321); assay: Binding of FAPL_FITC to TGFβ-induced NIH-3T3 cells; type: cell-based
T1 construct: NIH-3T3 cells were induced with TGFβ to express FAP; endogenous in cells; host or cells: NIH-3T3 mouse fibroblasts induced with TGFβ
T1 sequence (P97321 1-761): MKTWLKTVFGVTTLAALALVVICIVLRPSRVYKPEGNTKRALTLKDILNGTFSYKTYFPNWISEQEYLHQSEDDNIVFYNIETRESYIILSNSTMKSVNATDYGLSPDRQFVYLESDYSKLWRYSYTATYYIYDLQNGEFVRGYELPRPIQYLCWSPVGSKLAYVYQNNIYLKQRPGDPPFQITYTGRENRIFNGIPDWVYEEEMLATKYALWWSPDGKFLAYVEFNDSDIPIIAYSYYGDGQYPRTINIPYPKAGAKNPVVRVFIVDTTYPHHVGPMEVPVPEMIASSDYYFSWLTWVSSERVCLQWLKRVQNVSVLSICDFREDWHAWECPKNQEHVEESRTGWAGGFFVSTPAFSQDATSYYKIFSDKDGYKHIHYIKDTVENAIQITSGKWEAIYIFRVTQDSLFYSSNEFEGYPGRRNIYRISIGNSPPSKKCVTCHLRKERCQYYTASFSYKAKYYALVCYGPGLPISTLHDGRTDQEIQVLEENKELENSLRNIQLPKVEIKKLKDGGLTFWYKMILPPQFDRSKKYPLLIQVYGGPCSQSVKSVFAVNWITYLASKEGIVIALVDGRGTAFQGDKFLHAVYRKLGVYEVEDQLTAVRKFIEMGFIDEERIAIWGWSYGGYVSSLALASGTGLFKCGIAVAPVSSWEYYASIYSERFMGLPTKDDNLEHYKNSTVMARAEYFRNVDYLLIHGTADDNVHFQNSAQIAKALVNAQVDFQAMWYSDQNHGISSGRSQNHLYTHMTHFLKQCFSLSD
Source text: FAPL-FITC targets mouse FAP in mouse fibroblast cells. Fluorescence binding affinity study of FAPL_FITC in HLF-hFAP cells. (C) Binding of FAPL_FITC to TGFb induced mouse NIH-3T3 cell line.
In this Example, we have shown that FAPL_FITC can recognize mouse FAP. Briefly, NIH-3T3 cells were induced with TGFβ to express FAP (mimicking the pathogenesis of fibrosis in mice). FAPL_FITC can recognize almost 98% of the cell population that binds to a specific monoclonal antibody against mouse FAP.

human FAP = biological target: T2, human FAP (Homo sapiens, UniProt Q12884); assay: Live cell imaging of FAP-FITC binding and internalization in HLF1-hFAP cells; type: cell-based; conditions: 10 nM
T2 construct: expressed in transfected cells; host or cells: HLF1 human lung fibroblast cell line transfected with FAP (HLF1-hFAP)
T2 sequence (Q12884 1-760): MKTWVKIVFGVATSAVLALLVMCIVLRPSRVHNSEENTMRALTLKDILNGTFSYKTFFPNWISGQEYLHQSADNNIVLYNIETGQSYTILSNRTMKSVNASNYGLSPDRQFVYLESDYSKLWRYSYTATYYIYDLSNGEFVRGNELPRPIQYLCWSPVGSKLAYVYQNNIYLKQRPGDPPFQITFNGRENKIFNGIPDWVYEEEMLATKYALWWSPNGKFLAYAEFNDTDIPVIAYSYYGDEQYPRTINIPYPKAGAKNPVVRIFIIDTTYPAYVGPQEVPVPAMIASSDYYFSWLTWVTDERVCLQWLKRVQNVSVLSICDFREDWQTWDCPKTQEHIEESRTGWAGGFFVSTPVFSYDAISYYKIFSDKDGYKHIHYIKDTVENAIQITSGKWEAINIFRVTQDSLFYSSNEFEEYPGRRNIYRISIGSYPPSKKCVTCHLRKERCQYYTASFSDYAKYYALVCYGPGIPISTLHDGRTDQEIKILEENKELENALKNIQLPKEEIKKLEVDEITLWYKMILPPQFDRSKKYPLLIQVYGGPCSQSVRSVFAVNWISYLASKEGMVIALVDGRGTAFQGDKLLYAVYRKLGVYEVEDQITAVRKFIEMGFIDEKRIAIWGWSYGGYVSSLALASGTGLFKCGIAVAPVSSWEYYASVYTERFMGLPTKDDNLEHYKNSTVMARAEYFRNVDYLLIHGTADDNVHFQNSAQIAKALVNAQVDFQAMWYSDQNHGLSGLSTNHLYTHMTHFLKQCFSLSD
Description: FAPL-FITC targets human FAP in HLF1 cells. A) Live cell imaging of FAPL-FITC internalization. confocal microscopy images of HLF1-hFAP cells incubated with FAPL-FITC (10 nM), FAP staining is shown in green. Spatial localization of FAPL-FITC in HLF1-hFAP cell line at 0 min (a), and at 30 min (d). Colocalization of FAP and endosomes: HLF1-hFAP cells incubated with FAPL-FITC followed by staining for endosomes (Rab7a-RFP; red) and nucleus (DRAQ5; blue). The merge of the 3 images is shown on the right (c, and f). Yellow indicated colocalization of FAP with endosomal markers.
HLF1-hFAP cells were seeded in the glass-bottom dish and incubated with adequate amount of endosomes tracker (Rab7a-RFP, ThermoFisher) for overnight. Then cells were incubated with FAP-FITC (10 nM) for 1 hour at 4° C. Followed by staining with […] DRAQ5 nucleus dye (ThermoFisher) and 3 times of PBS washes, spatial localization of FAP-FITC was monitor at given time under ambient temperature by confocal microscope (FV 1000, Olympus). Confocal images were further processed by FV10-ASW, Olympus software.

HLF-1 fibroblasts [1] = assay: Secreted collagen in HLF1 cells (Sirius Red staining); type: cell-based, human
Description: (§1) PI3KI1 inhibits Akt phosphorylation, proliferation, collagen secretion and collagen gel contraction in HLF-1 fibroblasts. (A) PI3KI1 structure. (B) Confluent HLF-1 fibroblasts were stimulated with TGFβ (1 ng/mL) with indicated PI3KI1 or OMIPALISIB and lysates collected for Western blotting. […] Collagen 1 and αSMA expression was suppressed by 100 nM PI3KI1, but pSMAD2 was not affected by PI3K inhibitors. (C) MTT assay and Caspase 3 and 7 activity (Supplementary data) show PI3KI1 inhibited HLF-1 proliferation at >100 nM. (D) HLF-1 fibroblasts were stimulated with TGFβ (1 ng/mL) for 3 days and level of secreted collagen in culture medium was determined by Sirius Red staining. […] Data are analysis by t-test; *p<0.05, **p<0.01.
Confluent HLF1 cells were seeded in DMEM medium containing 10% FBS and then 0.4% serum starvation overnight before stimulation of collagen secretion. TGFb1 (0.1 ng/ml) were added into cells with or without PI3K inhibitors. At 2 days post co-incubation, culture medium was collected for determination of total secreted collagen level. Total collagen level was determined by Sirius Red Total Collagen Detection Kit (Chondrex, Inc). Basically, concentrated sample incubated with […] of Sirius Red Solution with for 20 minutes at room temperature. […] Add […] of Extraction Buffer to the Sirius Red stained pellet and read the OD at 510-550 nm.

IPF fibroblasts = assay: TGFβ-induced Collagen I in IPF patient fibroblasts (molecular crowding assay, high content imaging); type: cell-based, human; conditions: for TGFβ-induced collagen production/secretion: IPF patient fibroblasts, TGFβ 1 ng/mL, 48 h
Description: PI3KI1 and PI3KI1-FAPL suppressed TGFβ-induced collagen production in IPF fibroblasts. (B) Confluent IPF fibroblasts were stimulated for 48 h with TGFβ (1 ng/mL) with increasing concentrations of OMIPALISIB or PI3KI1 or PI3KI1-FAPL and Collagen I expression was assayed by molecular crowding assay with high content image analysis. Data are expressed as relative fluorescent intensity over TGFβ treated IPF fibroblasts (C) and cell counts obtained from DAPI counterstaining (D).

[2] = test system: bleomycin-induced lung fibrosis; assay: Therapy in bleomycin-induced lung fibrosis model (survival, hydroxyproline); type: in vivo, mouse; conditions: for survival: bleomycin-induced mice versus untreated/PBS control; for hydroxyproline/collagen in lung: bleomycin-induced mice, day 21, versus untreated/PBS control
Source text: Therapy with FAP-a targeted Pi3K inhibitor in bleomycin treated mice. (A) Schematic representation of the experimental protocol for induction, treatment and examination of pulmonary fibrosis in a mouse model. (B) Survival probability of the FAPL_PI3KI1 treated mice over the saline control. (C) Hydroxyproline content (ug/lung) of control (saline), bleomycin treated with and without FAPL_PI3KI1 treatment at day 21. (D) Body weight change
8 to 10-week old C57BL/6-NCrl (Strain Code: 027) male mice (Charles River) were anesthetized (mixture of xylazine/ketamine), followed by a single intratracheal injection of freshly prepared 0.75 mg/Kg of bleomycin sulfate (Cayman Chemicals, Cat N13877) in 50 μL of sterile phosphate-buffered saline (PBS). Control mice were injected with 50 μL of sterile PBS. Body weights were monitored throughout the study. To access the FAP expression and fibrosis in the longitudinal study the lungs were harvested at Days 7, 14 and 21 post-bleomycin instillation. For the therapy with FAP-PI3K inhibitor, same procedure was carried out to administer bleomycin and the lungs were harvested at Day 21 to access the therapeutic efficacy (Day 0 was accounted as the day of bleomycin administration).
Total lung collagen was determined by analysis of hydroxyproline as previously described.^30 The right lung was consistently dedicated for this assay to allow comparison. Briefly, harvested right lung was homogenized in PBS (PH 7.4), digested with 12N HCl at 120° C. for 3 hr. Citrate/acetate buffer (PH 6.0) and Chloramine-T solution were added at room temperature for 20 minutes and the samples were incubated with Ehrlich's solution for 15 min at 65° C. Samples were cooled to room temperature and read at 550 nm. Hydroxyproline standards (Sigma, MO) at concentrations between 0 to 100 μg/ml were used to construct a standard curve.

PI-3 Kinase signaling = conditions: IPF-derived lung fibroblasts; cited from earlier work
AKT phosphorylation = assay: Western blot of TGFβ-stimulated HLF-1 fibroblasts: Akt phosphorylation; type: cell-based, human
Description: as §1
(§2) Serum starved confluent HLF1 cells were co-incubated in medium containing 1 ng/ml TGFb1 with or without designate concentrations of PI3K inhibitors for 24 hours. Cells were harvested and lysed for Western blot analysis. Following sodium dodecyl sulphate polyacrylamide gel electrophoresis and blocking, membranes were incubated with antibodies to detect pSMAD2^Ser465/467 (#3101, Cell Signalling Technology), or pAkt^Ser473 (#4060, Cell signalling Technology), and signals visualized with ECL Western Blotting Detection Reagents (GE Healthcare). […]

[3] = test system: Collagen 1 and αSMA expression; assay: Western blot of TGFβ-stimulated HLF-1 fibroblasts: Collagen 1 and αSMA expression; type: cell-based, human; conditions: 100 nM, HLF-1, TGFβ 1 ng/mL
Description: as §1, §2

HLF-1 fibroblasts [4] = assay: MTT assay and Caspase 3 and 7 activity in HLF-1; type: cell-based, human
Description: as §1
FIG. 18. Caspase 3 and 7 activity show PI3KI1 inhibited HLF-1 proliferation at >100 nM.

HLF-1 fibroblasts [5] = assay: Collagen gel contraction assay; type: cell-based, human; conditions: 100 nM for 12 hours
Description: as §1

In the case of `C[C@H](NC(=O)c1ccnc(CNC(=O)CCC(=O)NC(CSC2CC(=O)N(c3ccc(C4c5ccc(O)cc5OC5=CC(=O)C=CC54)c(C(=O)O)c3)C2=O)C(=O)O)c1)C(=O)N1CC(F)(F)C[C@H]1C#N` (some centres unmarked) [FAPL-FITC], the “cell population recognized among cells binding a monoclonal antibody against mouse FAP” value (mouse FAP) is reported as ~98%, the “binding to hFAP-HLF1 cell line” value (human FAP; confocal microscopy and flow cytometry) is reported as “binds well with good competition” and the internalization (human FAP; HLF1-hFAP cells) is reported as “internalized upon receptor engagement”.

With `COc1ncc(-c2ccc3nccc(-c4ccc(COC(=O)OCCSSCC(NC(=O)CCC(=O)NCc5cc(C(=O)N[C@@H](C)C(=O)N6CC(F)(F)C[C@H]6C#N)ccn5)C(=O)O)nc4)c3c2)cc1NS(=O)(=O)c1ccc(F)cc1F` (some centres unmarked) [FAPL-PI3KI1] the IC50 (HLF-1 fibroblasts [1]; HLF1-hFAP cell line, read-out: IC50 of collagen secretion/synthesis) was < 10 nM, the IC50 (IPF fibroblasts; IPF patient cell lines, read-out: IC50 of collagen secretion/synthesis) was < 10 nM and the TGFβ-induced collagen production/secretion (IPF fibroblasts; listed as FAP_PI3KI1) was “suppresses TGFβ induced collagen secretion at low drug concentration, better than free PI3KI1 and free GSK drug OMIPALISIB”. For the same compound, the TGFβ-induced collagen production/secretion (IPF fibroblasts; listed as PI3KI1-FAPL) was “suppressed”, the survival [2] was “increased survival” and the survival ([2]; listed as FAPL_PI3KI-SUH) was “increased survival rate”. The hydroxyproline/collagen in lung [2] was “decreased hydroxyproline/collagen production” and the hydroxyproline/collagen in lung ([2]; listed as FAPL_PI3KI-SUH) was “reduction of hydroxyproline”.

In the case of `COc1ncc(-c2ccc3nccc(-c4ccnnc4)c3c2)cc1NS(=O)(=O)c1ccc(F)cc1F` [OMIPALISIB], the “PI-3 Kinase signaling and functional responses” value (PI-3 Kinase signaling) is listed as “inhibited PI-3 Kinase signaling and functional responses”.

With `COc1ncc(-c2ccc3nccc(-c4ccc(CO)nc4)c3c2)cc1NS(=O)(=O)c1ccc(F)cc1F` [PI3KI1] the “Akt phosphorylation inhibition compared with OMIPALISIB” value (AKT phosphorylation; HLF-1) was “better than its GSK counterpart OMIPALISIB”, the IC50 (AKT phosphorylation; Homo sapiens, HLF1, HLF-1, TGF-β 1 ng/ml for 24 hr, read-out: IC50 of TGF-β induced AKT phosphorylation) was 1.4 nM and the “Collagen 1 and αSMA expression” value [3] was “suppressed”. The toxicity (HLF-1 fibroblasts [4]; HLF-1) was “does not have toxicity”, the “concentration at which HLF-1 proliferation is inhibited” value (HLF-1 fibroblasts [4]; MTT assay and Caspase 3 and 7 activity) was > 100 nM and the collagen secretion (HLF-1 fibroblasts [1]; HLF-1 cell line, TGFβ stimulated) was “suppresses collagen secretion”. For the same compound, the “fibroblast reorganization and contraction (collagen gel contraction)” value (HLF-1 fibroblasts [5]) was “disrupted fibroblasts reorganization and contraction” and the TGFβ-induced collagen production/secretion (IPF fibroblasts) was “suppressed”.
